These results are taken from patent publication US10513521B2, “Compositions and methods for inhibiting BMP” (The Brigham and Women's Hospital, Inc., priority 2014, dated 2019).

Where “and” joins values, the source holds several entries; their conditions need not be identical. Identical values can stand only once.

The target of assay [1] is T1, ALK2 (Mus musculus, UniProt P37172).
T1 construct: The C2C12 cell line was selected for the measurement of ALK2 activity using BMP6 as the agonist; host or cells: C2C12
T1 sequence (P37172 21-509): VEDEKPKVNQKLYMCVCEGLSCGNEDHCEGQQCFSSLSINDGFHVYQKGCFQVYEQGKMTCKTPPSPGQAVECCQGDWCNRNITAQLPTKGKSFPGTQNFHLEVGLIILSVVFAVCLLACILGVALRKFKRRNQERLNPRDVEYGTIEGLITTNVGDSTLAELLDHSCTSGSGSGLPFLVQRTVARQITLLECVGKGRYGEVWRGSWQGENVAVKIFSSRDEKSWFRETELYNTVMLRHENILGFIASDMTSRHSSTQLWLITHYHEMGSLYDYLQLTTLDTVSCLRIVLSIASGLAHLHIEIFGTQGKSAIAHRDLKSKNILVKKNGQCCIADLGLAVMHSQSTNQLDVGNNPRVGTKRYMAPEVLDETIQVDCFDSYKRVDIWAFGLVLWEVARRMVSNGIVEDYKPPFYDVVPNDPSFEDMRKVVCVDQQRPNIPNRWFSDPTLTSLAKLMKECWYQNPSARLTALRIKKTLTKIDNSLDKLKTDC
As to the kind of experiment: HTRF pSMAD1 cell-based ALK2 assay (C2C12 cells, BMP6 as agonist). The procedure, abridged:
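Cells pre-starved, plated in 0.1% FBS medium for 4 h, compound added for 30 min, then stimulated 30 min with BMP9 (BAOEC) or BMP6 (C2C12). Phospho-SMAD1 measured by HTRF after overnight room-temperature detection incubation.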

A further assay has as its system BMP4. In words: BMP4 HTRF assay. In kind it is cell-based. For orientation: TR-FRET usually uses a lanthanide donor and a delayed reading to cut background.
In another assay the target is T2, ALK5 (Homo sapiens, UniProt P36897).
T2 sequence (P36897 34-503): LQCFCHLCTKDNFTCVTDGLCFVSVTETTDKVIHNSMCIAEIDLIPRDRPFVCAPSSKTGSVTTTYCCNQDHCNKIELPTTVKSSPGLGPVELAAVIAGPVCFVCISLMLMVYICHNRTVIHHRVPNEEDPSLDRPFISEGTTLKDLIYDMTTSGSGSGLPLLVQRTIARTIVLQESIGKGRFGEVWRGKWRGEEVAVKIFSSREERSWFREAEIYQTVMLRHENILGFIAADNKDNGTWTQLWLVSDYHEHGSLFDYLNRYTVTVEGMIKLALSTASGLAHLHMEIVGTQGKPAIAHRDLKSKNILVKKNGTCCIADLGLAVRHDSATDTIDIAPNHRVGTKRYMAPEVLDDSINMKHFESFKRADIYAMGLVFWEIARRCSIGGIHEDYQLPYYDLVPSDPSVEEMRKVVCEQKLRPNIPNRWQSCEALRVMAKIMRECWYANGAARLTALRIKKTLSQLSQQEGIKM
In words: TR-FRET enzymatic ALK kinase assay, ALK5.

Assay [2] concerns the target T1, ALK2. As to the kind of experiment: In-cell Western ALK2 assay (C2C12 cells, BMP6 as agonist). The note with it: read-out: BMP6 ICW. In kind it is cell-based. An excerpt:
3. In-Cell Western ALK1 and ALK2 Assays in 384-Well Plate Format.
We also optimized cell-based In-cell Western assays for measurements of ALK1 and ALK2 activities that were used to determine compound activities in these two kinases. The cell lines and agonists used were same as described in above cell-based HTRF ALK1 and ALK2 assays. The initial cell plating and compound treatment were also same. The main difference is the detection of phosphorylation status of SMAD1. In t-cell Western assay, the cells were fixed and phosphorylation status of SMAD1 was detected by the ELISA instead of using the HTRF assay kit in above assay.
HyClone Fetal Bovine Serum was obtained from GE healthcare life sciences (Logan, Utah). BMP6 and BMP9 were purchased from R&D System (R&D). Anti-P-SMAD 1/5/8 rabbit mAb and anti-rabbit IgG, HRP-Linked antibody were purchased from Cell Signaling Technology (Danvers, Mass.). BioFX Chemiluminescent Ultra-Sensitive HRP Microwell Substrate ECL Reagent was obtained from SurModics (Edina, Minn.). The compound plates and the white solid MB assay plates were from Greiner Bio-one (Monroe, N.C.).
Similarly as described in above HTRF cell-based assay, this assay was performed in 384 well plate format. […] Pre-starved cells were then plated in 384 well plate in the starvation medium (containing in 0.1% FBS). After 4 hours, compound dilutions in DMSO were added to the assay plate and incubated for 30 minutes. The assay plate was then added with BMP6 for C2C12 cells or BMP9 for BAOEC cells and incubated for 30 minutes.
The cells were washed in the plate washer with PBS and blocked with 2% BSA in PBS for 1 h at room temperature on the rotator. After removing the blocking reagent, the cells were incubated with the anti-p-SMAD1 antibody in 2% BSA in PBS for overnight at 4° C. on rotator. The cells were washed with PBS in the plate washer and incubated with HRP conjugated second antibody in 2% BSA in PBS for 1 hour at room temperature. After a cell wash with PBS, ECL detection reagent was added and the plate was read in the luminesce mode in the ViewLux plate reader.

Setting [3] is: HTRF assay, BMP6 as agonist, C2C12 cells, read-out: BMP6 HTRF.
The mark [4] stands for this setting: cell-based assay, BMP6, read-out: Cell IC50 BMP6.

Experimental for ALK5: Six ALK kinase enzyme assays were developed for determination of compound activities on ALK1, ALK2, ALK3, ALK4, ALK5 and ALK6.
Briefly, the ALKs enzymatic assay was initiated by dispense 2.5 μl enzyme in 1× kinase reaction buffer. The assay plate was then added with compounds followed by incubation at room temperature for 10 minutes. Then 2.5 μl/well substrate was added.

Turning to `C[C@@H]1CNC[C@H](C)N1c1ccc(-c2cnc3c(-c4cccc5c(C(N)=O)cccc45)cnn3c2)cc1` [Compound 10, 5-(6-(4-((2S,6R)-2,6-dimethylpiperazin-1-yl)phenyl)pyrazolo[1,5-a]pyrimidin-3-yl)-1-naphthamide], the IC50 on ALK2 [1] (setting [3]) was 19 nM; at ALK2 [1] (setting [4]), 4 nM; in the assay on BMP4, 140 nM; against ALK5, 9290 nM.
Consider `N/C(=N/O)c1ccc(-c2cnn3cc(-c4ccc(N5CCNCC5)cc4)cnc23)c2ccccc12` [Compound 15, N′-hydroxy-4-(6-(4-(piperazin-1-yl)phenyl)pyrazolo[1,5-a]pyrimidin-3-yl)-1-naphthimidamide], for which the values for the IC50 at ALK2 [1] (setting [4]) and at ALK5 were 170 nM and 17500 nM, respectively.
For `CC(C)(CN1CCCCC1)Oc1ccc(-c2cnc3c(-c4cccc5c(C(N)=O)cccc45)cnn3c2)cc1` [Compound 18, 5-(6-(4-((2-methyl-1-(piperidin-1-yl)propan-2-yl)oxy)phenyl)pyrazolo[1,5-a]pyrimidin-3-yl)-1-naphthamide] the same measures were 11 nM and 13500 nM.
For `NS(=O)(=O)c1ccc(-c2cnn3cc(-c4ccc(CCN5CCCCC5)cc4)cnc23)c2ccccc12` [Compound 54, 4-(6-(4-(2-(piperidin-1-yl)ethyl)phenyl)pyrazolo[1,5-a]pyrimidin-3-yl)naphthalene-1-sulfonamide], the IC50 at ALK2 [1] (setting [4]) was 160 nM; on ALK2 [2], 240 nM and 300 nM and 170 nM and 160 nM; against ALK5, above 10000 nM.
As to `C[C@@H]1CNC[C@H](C)N1c1ccc(-c2cnc3c(-c4cccc(S(C)(=O)=O)c4)cnn3c2)cc1` [Compound 82, 6-(4-((2R,6S)-2,6-dimethylpiperazin-1-yl)phenyl)-3-(3-(methylsulfonyl)phenyl)pyrazolo[1,5-a]pyrimidine], the IC50 was 308 nM on ALK2 [1] (setting [3]), 1 nM on ALK2 [1] (setting [4]), 180 nM in the assay with BMP4 and above 10000 nM against ALK5.
Regarding `CC(O)c1cccc(-c2cnn3cc(-c4ccc(N5[C@H](C)CNC[C@@H]5C)cc4)cnc23)c1` (stereo partly drawn) [Compound 83, 1-(3-(6-(4-((2R,6S)-2,6-dimethylpiperazin-1-yl)phenyl)pyrazolo[5-a]pyrimidin-3-yl)phenyl)ethanol], the IC50 on ALK2 [1] (setting [4]) was 35 nM; against ALK5, above 10000 nM.
For the compound `C[S+](=O)([O-])c1cccc(-c2cnn3cc(-c4ccc(OC5(CN6CCCCC6)COC5)cc4)cnc23)c1` [Compound 93, 3-(3-(methylsulfonyl)phenyl)-6-(4-((3-(piperidin-1-ylmethyl)oxetan-3-yl)oxy)phenyl)pyrazolo[1,5-a]pyrimidine], the IC50 at ALK2 [1] (setting [3]) is 230 nM; at ALK2 [1] (setting [4]), 11 nM; with BMP4, 100 nM; at ALK5, above 10000 nM.
In the case of `C[C@@H]1CNC[C@H](C)N1c1ccc(-c2cnc3c(-c4cccc(C(C)(C)O)c4)cnn3c2)cc1` [Compound 103, 2-(3-(6-(4-((2R,6S)-2,6-dimethylpiperazin-1-yl)phenyl)pyrazolo[1,5-a]pyrimidin-3-yl)phenyl)propan-2-ol], the IC50 on ALK2 [1] (setting [3]) was 260 nM; on ALK2 [1] (setting [4]), 18 nM; in the assay on BMP4, 130 nM; at ALK5, above 10000 nM.
On to `C[S+](=O)([O-])c1cccc(-c2cnn3cc(-c4ccc(OC5(Cn6ccnc6)COC5)cc4)cnc23)c1` [Compound 105, 6-(4-((3-((1H-imidazol-1-yl)methyl)oxetan-3-yl)oxy)phenyl)-3-(3-(methylsulfonyl)phenyl)pyrazolo[1,5-a]pyrimidine], for which the IC50 at ALK2 [1] (setting [3]) was 350 nM; at ALK2 [1] (setting [4]) it was below 1 nM; with BMP4 it was 9 nM; against ALK5, above 10000 nM.
In the case of `CS(=O)(=O)c1cccc(-c2cnn3cc(-c4ccc(OCCN5CCCC5)cc4)cnc23)c1` [Compound 108, 3-(3-(methylsulfonyl)phenyl)-6-(4-(2-(pyrrolidin-1-yl)ethoxy)phenyl)pyrazolo[1,5-a]pyrimidine], the IC50 at ALK2 [1] (setting [4]) is 185 nM; against ALK5 it was above 10000 nM.
Take `C[S+](=O)([O-])c1cccc(-c2cnn3cc(-c4ccc(OCCN5CCCCC5)cc4)cnc23)c1` [Compound 109]: the IC50 on ALK2 [1] (setting [4]) is 2 nM; at ALK2 [2] it was 190 nM and 300 nM; against ALK5, above 10000 nM.
Take `C[C@@H]1CNC[C@H](C)N1c1ccc(-c2cnc3c(-c4cccc([S+](=O)([O-])C5CC5)c4)cnn3c2)cc1` [Compound 111, 3-(3-(cyclopropylsulfonyl)phenyl)-6-(4-((2R,6S)-2,6-dimethylpiperazin-1-yl)phenyl)pyrazolo[1,5-a]pyrimidine]: the IC50 is below 1 nM on ALK2 [1] (setting [4]); 180 nM and 170 nM at ALK2 [2]; above 10000 nM on ALK5.
Turning to `CC(C)S(=O)(=O)c1cccc(-c2cnn3cc(-c4ccc(CCN5CCCCC5)cc4)cnc23)c1` [Compound 113, 3-(3-(isopropylsulfonyl)phenyl)-6-(4-(2-(piperidin-1-yl)ethyl)phenyl)pyrazolo[1,5-a]pyrimidine], the IC50 was 4.6 nM at ALK2 [1] (setting [4]); 360 nM and 220 nM at ALK2 [2]; above 10000 nM on ALK5.
`CC(C)S(=O)(=O)c1cccc(-c2cnn3cc(-c4ccc(N5[C@H](C)CNC[C@@H]5C)cc4)cnc23)c1` [Compound 114, 6-(4-((2R,6S)-2,6-dimethylpiperazin-1-yl)phenyl)-3-(3-(isopropylsulfonyl)phenyl)pyrazolo[1,5-a]pyrimidine]: the IC50 at ALK2 [1] (setting [4]) was below 1 nM; at ALK2 [2] it was 110 nM and 88 nM; against ALK5, above 10000 nM.
Regarding `CC1(c2ccc(-c3cnc4c(-c5cccc(S(C)(=O)=O)c5)cnn4c3)cc2)CCNCC1` [Compound 115, 6-(4-(4-methylpiperidin-4-yl)phenyl)-3-(3-(methylsulfonyl)phenyl)pyrazolo[1,5-a]pyrimidine], the IC50 is 11 nM at ALK2 [1] (setting [4]) and above 10000 nM at ALK5.
Take `C[C@@H]1CNC[C@H](C)N1c1ccc(-c2cnc3c(-c4cccc(C[S+](C)(=O)[O-])c4)cnn3c2)cc1` [Compound 117, 6-(4-((2R,6S)-2,6-dimethylpiperazin-1-yl)phenyl)-3-(3-((methylsulfonyl)methyl)phenyl)pyrazolo[1,5-a]pyrimidine]: the figures for the IC50 on ALK2 [1] (setting [4]) and at ALK5 were 66 nM and above 10000 nM, respectively.
As for `CS(=O)(=O)c1cccc(-c2cnn3cc(-c4ccc(CN5CCCCC5)cc4)cnc23)c1` [Compound 123, 3-(3-(methylsulfonyl)phenyl)-6-(4-(piperidin-1-ylmethyl)phenyl)pyrazolo[1,5-a]pyrimidine], the IC50 is 150 nM and 130 nM on ALK2 [1] (setting [3]); 2.4 nM at ALK2 [1] (setting [4]); 300 nM and 100 nM at ALK2 [2]; above 10000 nM against ALK5.
For `CC(O)c1cccc(-c2cnn3cc(-c4ccc(OC5(CN6CCCCC6)CC5)cc4)cnc23)c1` (stereo not drawn) [Compound 143, 1-(3-(6-(4-(1-(piperidin-1-ylmethyl)cyclopropoxy)phenyl)pyrazolo[1,5-a]pyrimidin-3-yl)phenyl)ethanol], the IC50 on ALK2 [1] (setting [3]) was 230 nM; at ALK2 [2] it was 57 nM and 56 nM; on ALK5, above 10000 nM.
